Columns and labels:
[1] = tested on: mRNA expressed from the genes (A) to (D) in rat liver; experiment: Behavior of genes (mRNA expression level, oligo-DNA microarray) in rat liver after 28-day oral administration; type: in vivo
In short: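 Male F344 SPF rats, 5 weeks old, four per group, dosed by oral gavage once daily for 28 days with test chemical or matched-volume solvent. Liver total RNA profiled on oligo-DNA microarray. Change ≥1.5-fold or ≤1/1.5 versus vehicle counted as significant if its direction matched that seen with other carcinogens.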

[2] = classification of the substance (M+/M−); cited from earlier work
[3] = tested on: liver; conditions: in vivo; cited from earlier work
[4] = tested on: rodent; conditions: classification of the substance (C+/C−); cited from earlier work
[5] = gene group (A), Unigene No. Rn.167075
[6] = gene group (C), Unigene No. Rn.120914

In the case of O=C1CCCCCN1 [TS074, Caprolactam], the “Behavior of gene caused by administration of chemical substance, Gene No. 4846” value ([1]; gene group (A), Unigene No. Rn.144554) is reported as “−”, the “Behavior of gene caused by administration of chemical substance, Gene No. 2026” value [1, 5] is reported as “−” and the “Behavior of gene caused by administration of chemical substance, Gene No. 4218” value [1, 5] is reported as “−”. The “Behavior of gene caused by administration of chemical substance, Gene No. 6182” value ([1]; gene group (A), Unigene No. Rn.5834) was “+”, the “Behavior of gene caused by administration of chemical substance, Gene No. 5600” value ([1]; gene group (A), Unigene No. Rn.9836) was “−” and the “Behavior of gene caused by administration of chemical substance, Gene No. 1494” value ([1]; gene group (B), Unigene No. Rn.1430) was “−”. For the same compound, the “Behavior of gene caused by administration of chemical substance, Gene No. 2045” value ([1]; gene group (B), Unigene No. Rn.19329) was “+”, the “Behavior of gene caused by administration of chemical substance, Gene No. 2203” value ([1]; gene group (B), Unigene No. Rn.21240) was “−” and the “Behavior of gene caused by administration of chemical substance, Gene No. 533” value ([1]; gene group (C), Unigene No. Rn.106184) was “−”. For the same compound, the “Behavior of gene caused by administration of chemical substance, Gene No. 725” value ([1]; gene group (C), Unigene No. Rn.108075) was “+”, the “Behavior of gene caused by administration of chemical substance, Gene No. 1163” value ([1]; gene group (C), Unigene No. Rn.11766) was “−” and the “Behavior of gene caused by administration of chemical substance, Gene No. 4973” value ([1]; gene group (C), Unigene No. Rn.118529) was “+”. The “Behavior of gene caused by administration of chemical substance, Gene No. 4095” value ([1]; gene group (C), Unigene No. Rn.119024) was “+”, the “Behavior of gene caused by administration of chemical substance, Gene No. 1334” value [1, 6] was “−” and the “Behavior of gene caused by administration of chemical substance, Gene No. 6620” value [1, 6] was “−”. The “Behavior of gene caused by administration of chemical substance, Gene No. 6303” value ([1]; gene group (C), Unigene No. Rn.123063) was “−”, the “Behavior of gene caused by administration of chemical substance, Gene No. 5878” value ([1]; gene group (C), Unigene No. Rn.143213) was “−” and the “Behavior of gene caused by administration of chemical substance, Gene No. 1131” value ([1]; gene group (C), Unigene No. Rn.144946) was “−”. For the same compound, the “Behavior of gene caused by administration of chemical substance, Gene No. 1562” value ([1]; gene group (C), Unigene No. Rn.14744) was “−”, the “Behavior of gene caused by administration of chemical substance, Gene No. 1741” value ([1]; gene group (C), Unigene No. Rn.1647) was “+” and the “Behavior of gene caused by administration of chemical substance, Gene No. 893” value ([1]; gene group (C), Unigene No. Rn.164817) was “−”. For the same compound, the “Behavior of gene caused by administration of chemical substance, Gene No. 6026” value ([1]; gene group (C), Unigene No. Rn.167685) was “−”, the “Behavior of gene caused by administration of chemical substance, Gene No. 154” value ([1]; gene group (C), Unigene No. Rn.185941) was “−” and the “Behavior of gene caused by administration of chemical substance, Gene No. 1993” value ([1]; gene group (C), Unigene No. Rn.18728) was “−”. The “Behavior of gene caused by administration of chemical substance, Gene No. 813” value ([1]; gene group (C), Unigene No. Rn.201760) was “−”, the “Behavior of gene caused by administration of chemical substance, Gene No. 2494” value ([1]; gene group (C), Unigene No. Rn.23969) was “−” and the “Behavior of gene caused by administration of chemical substance, Gene No. 2546” value ([1]; gene group (C), Unigene No. Rn.24561) was “−”. The “Behavior of gene caused by administration of chemical substance, Gene No. 3776” value ([1]; gene group (C), Unigene No. Rn.43232) was “+”, the “Behavior of gene caused by administration of chemical substance, Gene No. 3929” value ([1]; gene group (C), Unigene No. Rn.4620) was “+” and the “Behavior of gene caused by administration of chemical substance, Gene No. 1119” value ([1]; gene group (C), Unigene No. Rn.9757) was “−”. For the same compound, the “Behavior of gene caused by administration of chemical substance, Gene No. 6742” value ([1]; gene group (C), Unigene No. Rn.9779) was “−”, the “Behavior of gene caused by administration of chemical substance, Gene No. 5634” value ([1]; gene group (C), Unigene No. Rn.9862) was “+” and the “Behavior of gene caused by administration of chemical substance, Gene No. 5726” value ([1]; gene group (D), Unigene No. Rn.9939) was “−”. For the same compound, the “Mutagenicity by Ames test” value [2] was “M−”, the Liver carcinogenicity [3] was “Cr−” and the Carcinogenicity [4] was “C−”.

Source: patent US20110039721A1, “METHOD FOR PREDICTION ABOUT CARCINOGENICITY OF SUBSTANCE IN RODENT” (Chemicals Evaluation and Research Institute, priority 2007, published 2011)
